Source: patent publication US20020103261A1, “Compositions for injection or intravenous administration for the treatment of internal infection or inflammation in humans and animals” (priority 2000, published 2002)

How the values were obtained:
[1] = inactive metabolites after enzymatic degradation; cited from earlier work
Solubility in lipids = format: physicochemical

Row | SMILES | metabolites excreted in the urine [1] | metabolites expired from the lungs in the form of CO2 [1] [%] | solubility in lipids (Solubility in lipids)
1 | Cc1ccc(C(C)C)cc1O [isopropyl-o-cresol, 5-isopropyl-2-methylphenol] | approx. 90% | 10 | soluble in lipids
2 | Cc1ccc(C(C)C)c(O)c1 [isopropyl-cresol, 5-methyl-2[1-methylethyl]phenol] | – | 10 | –
